Assay results from US7776912B2, “Acetals of nepetalic acid and method of preparation” (E.I. du Pont de Nemours and Company, priority 2006, dated 2010).

System: Aedes aegypti mosquitoes
Assay: in vitro Gupta box landing assay (insect repellency)
Assay type: in vivo
Conditions: 1% (w/v) in IPA, mean of three replicates; for % Mean repellency: 25 μl applied to Baudruche membrane over bovine blood, landings recorded over 20 min, (C−T)/C×100 vs IPA control well; for Mean time to first landing / Mean number of total landings: 25 μl on membrane; for Mean time to first landing: about 250 female Aedes aegypti; for Mean number of total landings: recorded at 2 min intervals over 20 min
Description: The products of Examples 1-6 were evaluated for the insect repellency against Aedes aegypti mosquitoes in the in vitro Gupta box landing assay. In this method, a chamber contained 5 wells, each covered by a Baudruche (animal intestine) membrane. Each well was filled with bovine blood, containing sodium citrate (to prevent clotting) and ATP (72 mg ATP disodium salt per 26 ml of blood), and heated to 37° C. A volume of 25 μl of isopropyl alcohol(IPA) containing one test specimen, or DEET as a control, was applied to each membrane. The concentrations were all 1% w/v in IPA except where otherwise indicated. The control was a membrane surface treated with a 1% solution of DEET.
After 5 min, approximately 250 4-day-old female Aedes aegypti mosquitoes were introduced into the chamber. The number of mosquitoes probing the membranes for each treatment was recorded at 2 min intervals over 20 min. Each datum represents the mean of three replicate experiments.
C=the total number of landings on the IPA control well, and
T=the total number of landings on the test solution well.
The % mean repellencies at 1% (w/v) are depicted in Table 2 in addition to mean time to first landing, and mean number of total landings for the nepetalic acid acetals of Examples 1-6 and for DEET as a control.

## CCN(CC)C(=O)c1cccc(C)c1 [DEET, N,N-diethyltoluamide, reference compound]
  % Mean repellency: 68.60%
  Mean time to first landing: 3.5 min
  Mean number of total landings: 17.7

## COC1OC(=O)[C@H]2[C@H](CC[C@@H]2C)C1C (stereo partly drawn) [Example 1, (4aR,7S,7aR)-3-methoxy-4,7-dimethylhexahydrocyclopenta[c]pyran-1(3H)-one]
  % Mean repellency: 79.30%
  Mean time to first landing: 3.2 min
  Mean number of total landings: 12.2

## CCOC1OC(=O)[C@H]2[C@H](CC[C@@H]2C)C1C (stereo partly drawn) [Example 2, (4aR,7S,7aR)-3-ethoxy-4,7-dimethylhexahydrocyclopenta[c]pyran-1(3H)-one]
  % Mean repellency: 52.40%
  Mean time to first landing: 5.2 min
  Mean number of total landings: 26.4

## CCCOC1OC(=O)[C@H]2[C@H](CC[C@@H]2C)C1C (stereo partly drawn) [Example 3, (4aR,7S,7aR)-3-n-propoxy-4,7-dimethylhexahydrocyclopenta[c]pyran-1(3H)-one]
  % Mean repellency: 89.10%
  Mean time to first landing: 11.6 min
  Mean number of total landings: 5.2

## CC(C)OC1OC(=O)[C@H]2[C@H](CC[C@@H]2C)C1C (stereo partly drawn) [Example 4, (4aR,7S,7aR)-3-isopropoxy-4,7-dimethylhexahydrocyclopenta[c]pyran-1(3H)-one]
  % Mean repellency: 73.20%
  Mean time to first landing: 2.8 min
  Mean number of total landings: 30.6

## CCCCOC1OC(=O)[C@H]2[C@H](CC[C@@H]2C)C1C (stereo partly drawn) [Example 5, (4aR,7S,7aR)-3-n-butoxy-4,7-dimethylhexahydrocyclopenta[c]pyran-1(3H)-one]
  % Mean repellency: 17.80%
  Mean time to first landing: 2.8 min
  Mean number of total landings: 33.8

## CC(C)COC1OC(=O)[C@H]2[C@H](CC[C@@H]2C)C1C (stereo partly drawn) [Example 6, (4aR,7S,7aR)-3-isobutoxy-4,7-dimethylhexahydrocyclopenta[c]pyran-1(3H)-one]
  % Mean repellency: 20.40%
  Mean time to first landing: 2.0 min
  Mean number of total landings: 91.6
